Test results: patent publication US9853225B2, “Chalcogen-containing organic compound and a use thereof” (JNC CORPORATION, priority 2013, dated 2017)

Assays:
[1] = Evaluation of thermal stability, TG/DTA; format: physicochemical; conditions: heating 5° C. per minute
[2] = Evaluation of chemical stability, UV-Vis spectra of film standing in atmospheric air; format: physicochemical; conditions: vacuum-deposited film 100 nanometers, one week in atmospheric air
Source text: A film having a thickness of 100 nanometers formed by performing vacuum deposition of the compound synthesized in Example 4 was allowed to stand for one week in atmospheric air. The results obtained by measuring UV-Vis spectra (device used: Jasco V-570 Spectrometer, made by JASCO Corporation) over time during the period are shown in FIG. 3. […] According to the above, the compound of the present invention is clearly found to be chemically stable too.

[3] = Evaluation of thermal stability, DSC; format: physicochemical; conditions: heating 5° C. per minute

SMILES | melting point | 5% weight reduction temperature [1] | change of UV-Vis spectrum of film [2] | phase transition points [3]
CCCCCCc1ccc2cc3c(cc2c1)sc1cc2c(cc13)sc1cc3cc(CCCCCC)ccc3cc12 [Example 5, 3,11-dihexyldinaphtho[2,3-d:2′,3′-d′]benzo[1,2-b:4,5-b′]dithiophene] | > 300 °C |  |  | 
CCCCCCCCCCc1ccc2cc3c(cc2c1)oc1cc2c(cc13)oc1cc3cc(CCCCCCCCCC)ccc3cc12 [Example 3, 3,11-didecyldinaphtho[2,3-d:2′,3′-d′]benzo[1,2-b:4,5-b′]difuran] | ≥ 350 °C |  |  | 
CCCCCCCCCCc1ccc2cc3oc4cc5c(cc4c3cc2c1)oc1cc2ccc(CCCCCCCCCC)cc2cc15 [Example 1, 2,10-didecyldinaphtho[2,3-d:2′,3′-d′]benzo[1,2-b:4,5-b′]difuran] | 316 to 317 °C |  |  | 

Now from value to compound:

melting point | 5% weight reduction temperature [1] | change of UV-Vis spectrum of film [2] | phase transition points [3] | SMILES
285 to 286 °C |  |  |  | CCCCCCCCCCc1ccc2cc3sc4cc5c(cc4c3cc2c1)sc1cc2ccc(CCCCCCCCCC)cc2cc15 [Example 2, 2,10-didecyldinaphtho[2,3-d:2′,3′-d′]benzo[1,2-b:4,5-b′]dithiophene]
263 to 264 °C | 426 °C | no change of the spectrum was observed |  | CCCCCCCCCCc1ccc2cc3c(cc2c1)sc1cc2c(cc13)sc1cc3cc(CCCCCCCCCC)ccc3cc12 [Example 4, 3,11-didecyldinaphtho[2,3-d:2′,3′-d′]benzo[1,2-b:4,5-b′]dithiophene]
≥ 300 °C | 450 °C | no change of the spectrum was observed | no phase transition point was observed | CCCCCCCCCCc1ccc2cc3c(cc2c1)sc1cc2cc4c(cc2cc13)sc1cc2cc(CCCCCCCCCC)ccc2cc14 [Example 7]
